Converted amounts (≈) assume the structure as drawn.
Assays:
[1] = biological target: T1, Relaxin receptor 1 (Homo sapiens, UniProt Q9HBX9); assay: Agonist activity at human RXFP1 expressed in T-Rex-CHO-K1 cells assessed as stimulation of cAMP production incubated for 45 mins by HTRF assay; assay type: functional, cell-based
T1 sequence (Q9HBX9 whole entry): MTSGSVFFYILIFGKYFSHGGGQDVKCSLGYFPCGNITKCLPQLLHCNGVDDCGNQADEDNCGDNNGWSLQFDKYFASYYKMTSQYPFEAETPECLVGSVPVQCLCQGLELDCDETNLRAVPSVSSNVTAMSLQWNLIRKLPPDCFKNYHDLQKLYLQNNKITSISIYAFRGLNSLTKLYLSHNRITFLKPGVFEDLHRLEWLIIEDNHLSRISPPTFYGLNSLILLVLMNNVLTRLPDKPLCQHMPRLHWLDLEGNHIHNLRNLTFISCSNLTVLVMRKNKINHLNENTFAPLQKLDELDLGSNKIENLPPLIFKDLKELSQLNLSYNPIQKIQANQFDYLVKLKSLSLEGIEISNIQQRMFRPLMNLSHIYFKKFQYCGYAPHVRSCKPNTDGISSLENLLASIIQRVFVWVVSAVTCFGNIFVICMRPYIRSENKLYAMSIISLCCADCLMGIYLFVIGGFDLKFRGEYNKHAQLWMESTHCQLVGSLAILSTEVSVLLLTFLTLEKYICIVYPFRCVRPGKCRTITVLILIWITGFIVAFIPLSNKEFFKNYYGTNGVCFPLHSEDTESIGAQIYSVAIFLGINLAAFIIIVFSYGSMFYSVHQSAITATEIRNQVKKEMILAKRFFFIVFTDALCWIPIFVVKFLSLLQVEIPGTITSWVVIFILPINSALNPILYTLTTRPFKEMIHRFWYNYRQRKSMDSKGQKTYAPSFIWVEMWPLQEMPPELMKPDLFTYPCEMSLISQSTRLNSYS

[2] = biological target: Voltage-gated inwardly rectifying potassium channel KCNH2 (Homo sapiens, UniProt Q12809); assay: Inhibition of human ERG by automated electrophysiology recording; assay type: toxicity
Sequence of Voltage-gated inwardly rectifying potassium channel KCNH2 (Q12809 whole entry): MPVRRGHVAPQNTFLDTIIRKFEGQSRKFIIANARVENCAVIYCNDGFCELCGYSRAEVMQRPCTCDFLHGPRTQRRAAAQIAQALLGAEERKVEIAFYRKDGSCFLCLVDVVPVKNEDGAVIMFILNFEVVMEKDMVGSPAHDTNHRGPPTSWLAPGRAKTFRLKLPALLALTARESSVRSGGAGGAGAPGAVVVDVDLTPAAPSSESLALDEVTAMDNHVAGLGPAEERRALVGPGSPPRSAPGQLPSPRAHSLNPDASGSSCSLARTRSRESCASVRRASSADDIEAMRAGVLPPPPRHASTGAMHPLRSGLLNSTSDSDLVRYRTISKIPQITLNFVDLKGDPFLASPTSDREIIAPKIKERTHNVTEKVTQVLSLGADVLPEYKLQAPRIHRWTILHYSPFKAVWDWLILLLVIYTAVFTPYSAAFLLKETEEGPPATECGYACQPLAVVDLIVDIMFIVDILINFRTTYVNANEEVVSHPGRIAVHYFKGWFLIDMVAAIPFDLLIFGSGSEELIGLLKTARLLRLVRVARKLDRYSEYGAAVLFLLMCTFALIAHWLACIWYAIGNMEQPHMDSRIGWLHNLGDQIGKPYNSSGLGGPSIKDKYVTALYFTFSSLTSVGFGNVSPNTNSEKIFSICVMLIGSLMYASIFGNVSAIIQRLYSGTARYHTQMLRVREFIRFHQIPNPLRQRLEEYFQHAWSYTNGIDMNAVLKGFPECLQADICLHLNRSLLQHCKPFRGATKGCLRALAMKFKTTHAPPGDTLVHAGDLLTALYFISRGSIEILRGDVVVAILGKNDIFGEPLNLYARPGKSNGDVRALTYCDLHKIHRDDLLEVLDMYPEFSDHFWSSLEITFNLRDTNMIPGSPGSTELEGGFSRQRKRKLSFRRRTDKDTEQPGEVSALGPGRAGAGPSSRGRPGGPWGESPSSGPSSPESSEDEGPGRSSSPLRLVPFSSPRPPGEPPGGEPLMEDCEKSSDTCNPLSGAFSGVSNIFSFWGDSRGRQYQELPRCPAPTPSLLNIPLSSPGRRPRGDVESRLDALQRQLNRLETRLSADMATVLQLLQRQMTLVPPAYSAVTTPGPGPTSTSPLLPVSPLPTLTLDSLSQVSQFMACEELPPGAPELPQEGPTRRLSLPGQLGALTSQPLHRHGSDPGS

[3] = biological target: T2, Relaxin receptor 1 (Rattus norvegicus) (UniProt Q6R6I6); assay: Agonist activity at rat RXFP1 expressed in T-Rex-CHO-K1 cells assessed as stimulation of cAMP production by measuring unbound concentration incubated for 60 mins by HTRF assay; assay type: functional, cell-based; details: filed as agonist
T2 sequence (whole entry): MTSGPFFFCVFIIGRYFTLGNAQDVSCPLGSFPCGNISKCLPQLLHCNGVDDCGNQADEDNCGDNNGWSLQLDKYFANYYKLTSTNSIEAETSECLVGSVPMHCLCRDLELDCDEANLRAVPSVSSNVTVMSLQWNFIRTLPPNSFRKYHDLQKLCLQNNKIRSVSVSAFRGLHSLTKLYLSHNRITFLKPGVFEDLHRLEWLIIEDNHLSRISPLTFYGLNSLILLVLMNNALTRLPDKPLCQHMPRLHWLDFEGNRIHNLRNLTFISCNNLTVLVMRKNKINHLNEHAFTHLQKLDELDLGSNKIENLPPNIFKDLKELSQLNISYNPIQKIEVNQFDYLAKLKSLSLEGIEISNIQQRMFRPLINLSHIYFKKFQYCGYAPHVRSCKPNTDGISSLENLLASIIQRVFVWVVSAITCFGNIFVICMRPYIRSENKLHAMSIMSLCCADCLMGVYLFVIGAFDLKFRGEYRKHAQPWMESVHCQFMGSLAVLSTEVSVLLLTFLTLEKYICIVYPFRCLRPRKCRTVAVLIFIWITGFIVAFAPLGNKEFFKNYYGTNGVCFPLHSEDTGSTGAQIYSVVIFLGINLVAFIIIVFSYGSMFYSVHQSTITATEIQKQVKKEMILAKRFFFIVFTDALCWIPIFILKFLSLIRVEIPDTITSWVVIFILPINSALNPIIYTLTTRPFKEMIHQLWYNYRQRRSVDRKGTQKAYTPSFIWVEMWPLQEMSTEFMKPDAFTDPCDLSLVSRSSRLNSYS

[4] = Genotoxicity in human A549 upto 1000 uM by micronucleus test; assay type: toxicity, cell-based; details: a549, 1000 µM
[5] = Metabolic stability in cryopreserved human hepatocytes assessed as intrinsic clearance measured per 10^6 cells at 1 uM after 120 mins by LC-MS/MS analysis; assay type: ADME, cell-based, Hepatocyte; details: hepatocytes, 2 h, 1 µM
[6] = Solubility of compound in FaSSIF at pH 6.5; assay type: ADME
[7] = biological target: T1, Relaxin receptor 1; assay: Agonist activity at human RXFP1 expressed in T-Rex-CHO-K1 cells assessed as stimulation of cAMP production by measuring unbound concentration incubated for 45 mins by HTRF assay
[8] = Half-life in Han Wistar rat at 0.73 micromol/kg, iv by LC-MS/MS analysis; assay type: ADME, organism-based; details: in vivo, dose 0.73 µmol/kg
[9] = biological target: T3, A-type voltage-gated potassium channel KCND3 (Homo sapiens, UniProt Q9UK17); assay: Inhibition of human Kv4.3 by automated electrophysiology recording; assay type: toxicity
T3 sequence (Q9UK17 whole entry): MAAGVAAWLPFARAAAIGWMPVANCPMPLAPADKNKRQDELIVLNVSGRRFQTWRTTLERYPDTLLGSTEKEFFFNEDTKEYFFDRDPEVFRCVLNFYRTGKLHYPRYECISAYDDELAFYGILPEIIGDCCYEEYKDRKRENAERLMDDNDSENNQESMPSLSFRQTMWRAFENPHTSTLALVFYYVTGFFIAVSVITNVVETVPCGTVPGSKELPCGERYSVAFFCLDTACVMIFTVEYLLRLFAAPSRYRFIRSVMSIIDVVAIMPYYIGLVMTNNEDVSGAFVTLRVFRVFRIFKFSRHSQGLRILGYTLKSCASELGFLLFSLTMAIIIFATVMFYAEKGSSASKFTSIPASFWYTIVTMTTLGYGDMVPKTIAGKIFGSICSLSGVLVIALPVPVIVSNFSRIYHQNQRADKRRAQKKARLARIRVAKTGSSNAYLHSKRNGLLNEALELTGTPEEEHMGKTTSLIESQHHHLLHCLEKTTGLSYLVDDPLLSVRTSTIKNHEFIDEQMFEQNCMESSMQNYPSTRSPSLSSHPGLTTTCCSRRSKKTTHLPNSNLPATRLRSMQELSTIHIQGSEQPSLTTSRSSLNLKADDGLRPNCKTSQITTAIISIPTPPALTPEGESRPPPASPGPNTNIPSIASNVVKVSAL

[10] = Protein binding in rat plasma assessed as free fraction at 5 uM incubated for 18 hrs by equilibrium dialysis based LC-MS/MS analysis; assay type: ADME, cell-free
[11] = system: IKs channel; assay: Inhibition of human IKS channel by automated electrophysiology recording; assay type: toxicity
[12] = Lipophilicity, logD of the compound in 1-octanol and phosphate buffer at pH 7.4 incubated for 3 hrs by shake flask method based LC/MS/MS analysis; assay type: physicochemical; details: 1-octanol/phosphate buffer, pH 7.4
[13] = Clearance in Han Wistar rat at 0.73 micromol/kg, iv by LC-MS/MS analysis; assay type: ADME, organism-based; details: in vivo, dose 0.73 µmol/kg
[14] = Cytotoxicity against human HepG2 cells cultured under galactose condition assessed as reduction in cell viability; assay type: toxicity, cell-based
[15] = Cytotoxicity against human HepG2 cells cultured as C3a spheroids assessed as reduction in cell viability; assay type: toxicity, cell-based

- EC50 [1]: 0.000398 µM
- fEC50 [3]: 17 nM
- CLH [5]: 21 µL/min/1e6 cells
- solubility [6]: 6.3 µM (≈ 4.3 µg/mL)
- EC50 [7]: < 0.0316 nM
- half-life [8]: 2.9 h
- fraction unbound at 18 h, 5 µM [10]: 0.0015
- logD at 3 h [12]: 4.9
- clearance [13]: 38 mL/min/kg
SMILES: COc1cc(F)c(O[C@H]2CC[C@@](C)(C(=O)O)CC2)cc1C(=O)N[C@@H]1[C@H]2CC[C@H](C2)[C@@H]1C(=O)Nc1ccc(F)c(S(F)(F)(F)(F)F)c1
- IC50 [2]: > 39 µM
- Activity [4]: Non-Toxic
- IC50 [9]: > 33 µM
- IC50 [11]: > 33 µM
- IC50 [14]: 37 µM
- IC50 [15]: 17 µM
